Measurements taken from US6759424B2, “Imidazolidine derivatives, their preparation, their use, and pharmaceutical preparations comprising them” (Aventis Pharma Deutschland GmbH, priority 1997, dated 2004).

Molecular target: T1, interaction between VCAM-1 and VLA-4 (Homo sapiens, UniProt P05556+P13612)
T1 construct: supplied in their natural form as surface molecules on human U937 cells; host or cells: U937 cells carry VLA-4; The VCAM-1(1-3)-IgG partner was made by transient transfection of COS cells (ATCC CRL1651) and used as culture supernatant
T1 sequence (P13612 34-1032): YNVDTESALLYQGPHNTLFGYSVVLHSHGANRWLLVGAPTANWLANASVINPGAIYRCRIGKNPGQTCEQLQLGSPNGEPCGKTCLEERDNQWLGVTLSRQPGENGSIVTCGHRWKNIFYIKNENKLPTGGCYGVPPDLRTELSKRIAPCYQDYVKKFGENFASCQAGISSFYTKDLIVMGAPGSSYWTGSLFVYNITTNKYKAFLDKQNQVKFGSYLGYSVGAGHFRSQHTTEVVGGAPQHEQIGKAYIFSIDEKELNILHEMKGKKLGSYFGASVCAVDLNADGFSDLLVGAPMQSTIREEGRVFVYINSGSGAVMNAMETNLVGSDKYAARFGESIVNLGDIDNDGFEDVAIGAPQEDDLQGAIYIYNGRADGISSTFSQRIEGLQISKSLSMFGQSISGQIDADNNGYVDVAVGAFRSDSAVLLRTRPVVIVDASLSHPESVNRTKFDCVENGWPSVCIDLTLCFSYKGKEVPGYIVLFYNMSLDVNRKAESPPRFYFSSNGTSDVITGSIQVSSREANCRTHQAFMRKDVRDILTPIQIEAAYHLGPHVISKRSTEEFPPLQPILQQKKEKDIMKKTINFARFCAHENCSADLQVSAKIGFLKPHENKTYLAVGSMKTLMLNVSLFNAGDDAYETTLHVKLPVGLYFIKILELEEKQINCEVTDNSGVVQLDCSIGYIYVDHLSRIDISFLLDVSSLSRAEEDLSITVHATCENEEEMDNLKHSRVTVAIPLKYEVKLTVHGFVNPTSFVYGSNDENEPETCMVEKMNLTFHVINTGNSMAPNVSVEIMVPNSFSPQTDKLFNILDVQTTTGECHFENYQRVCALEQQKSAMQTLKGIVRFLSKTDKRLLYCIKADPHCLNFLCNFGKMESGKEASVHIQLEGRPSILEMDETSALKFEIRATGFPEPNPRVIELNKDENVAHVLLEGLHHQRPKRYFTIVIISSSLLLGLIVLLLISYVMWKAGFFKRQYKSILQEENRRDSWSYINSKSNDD
T1 sequence (P05556 21-798): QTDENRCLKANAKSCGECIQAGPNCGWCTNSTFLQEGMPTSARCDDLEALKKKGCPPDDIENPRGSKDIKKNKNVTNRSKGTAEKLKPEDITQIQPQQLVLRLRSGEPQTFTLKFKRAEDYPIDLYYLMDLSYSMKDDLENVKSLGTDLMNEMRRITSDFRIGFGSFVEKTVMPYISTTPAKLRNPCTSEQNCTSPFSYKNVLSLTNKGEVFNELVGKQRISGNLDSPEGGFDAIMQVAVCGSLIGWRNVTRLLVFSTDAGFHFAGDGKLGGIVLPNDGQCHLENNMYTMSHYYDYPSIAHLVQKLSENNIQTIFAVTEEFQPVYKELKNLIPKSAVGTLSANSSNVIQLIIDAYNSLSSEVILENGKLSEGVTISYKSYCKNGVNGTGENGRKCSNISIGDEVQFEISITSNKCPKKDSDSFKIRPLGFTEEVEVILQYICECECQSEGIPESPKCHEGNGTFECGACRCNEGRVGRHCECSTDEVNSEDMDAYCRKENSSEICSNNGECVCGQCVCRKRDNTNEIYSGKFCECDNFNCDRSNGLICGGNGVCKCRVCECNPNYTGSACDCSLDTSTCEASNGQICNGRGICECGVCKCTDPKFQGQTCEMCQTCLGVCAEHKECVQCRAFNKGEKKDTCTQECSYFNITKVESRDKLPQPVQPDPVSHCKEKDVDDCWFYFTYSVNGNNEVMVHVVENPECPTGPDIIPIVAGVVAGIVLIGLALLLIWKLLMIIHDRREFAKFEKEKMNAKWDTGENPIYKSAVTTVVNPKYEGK
Assay: U937/VCAM-1 cell adhesion test (adhesion of U937 cells to hVCAM-1(1-3)-IgG)
Format: cell-based
Conditions: human U937 cells adhering to hVCAM-1(1-3)-IgG; concentration giving 50% inhibition of adhesion
Source text: The test method used for the activity of the compounds of the formula I on the interaction between VCAM-1 and VLA-4 is an assay which is specific for this interaction. The cellular binding components, i.e., the VLA-4 integrins, are supplied in their natural form as surface molecules on human U937 cells (ATCC CRL 1593), which belong to the leucocytes group. The specific binding components used are genetically engineered recombinant soluble fusion proteins, consisting of the extracytoplasmatic domain of human VCAM-1 and the constant region of a human immunoglobulin of the subclass IgG1.
Assay for the Measurement of the Adhesion of U937 Cells (ATCC CRL 1593) to hVCAM-1 (1-3)-IgG
1. Preparation of Human VCAM-1(1-3)-IgG and Human CD4-IgG
A genetic construct for the expression of the extracellular domain of human VCAM-1, associated with the genetic sequence of the heavy chain of human immunoglobulin IgG1 (hinge, CH2 and CH3 regions), from Dr. Brian Seed, Massachusetts General Hospital, Boston, USA was employed (cf. Damle and Aruffo, Proc. Natl. Acad. Sci. USA 1991, 88, 6403-6407). The soluble fusion protein hVCAM-1(1-3)-IgG contained the three amino-terminal extracellular immunoglobulin-like domains of human VCAM-1 (Damle and Aruffo, Proc. Natl. Acad. Sci. USA 1991, 88, 6403). CD4-IgG (Zettlmeissl et al., DNA and Cell Biology 1990, 9, 347) served as a fusion protein for negative controls. The recombinant proteins were expressed as soluble proteins after DEAE/dextran-mediated DNA transfection in COS cells (ATCC CRL1651) according to standard procedures (Ausubel et al., Current Protocols in Molecular Biology, John Wiley & Sons, Inc., 1994).
2. Assay for the Measurement of the Adhesion of U937 Cells to hVCAM-1(1-3)-IgG
2.1 96-well microtiter test plates (Nunc Maxisorb) were incubated at room temperature for 1 hour with 100 μl/well of a goat-anti-human IgG antibody solution (10 μg/ml in 50 mM tris, pH 9.5). After removal of the antibody solution, washing was carried out once with PBS.
2.2 150 μl/well of a blocking buffer (1% BSA in PBS) was incubated on the plates at room temperature for 0.5 hour. After removal of the blocking buffer, washing was carried out once with PBS.
2.3 100 μl per well of a cell culture supernatant of transfected COS cells were incubated on the plates at room temperature for 1.5 hours. The COS cells were transfected with a plasmid which codes for the three N-terminal immunoglobulin-like domains of VCAM-1, coupled to the Fc part of human IgG, (hVCAM-1 (1-3)-IgG). The content of hVCAM-1 (1-3)-IgG was about 0.5-1 μg/ml. After removal of the culture supernatant washing was carried out once with PBS.
2.4 The plates were incubated at room temperature for 20 minutes with 100 μl/well of Fc receptor blocking buffer (1 mg/ml of γ-globulin, 100 mM NaCl, 100 μM MgCl2, 100 μM MnCl2, 100 μM CaCl2, 1 mg/ml of BSA in 50 mM HEPES, pH 7.5). After removal of the Fc receptor blocking buffer washing was carried out once with PBS.
2.5 20 μl of binding buffer (100 mM NaCl, 100 μM MgCl2, 100 μM MnCl2, 100 μM CaCl2, 1 mg/ml of BSA in 50 mM HEPES, pH 7.5) were initially introduced, and the substances to be tested were added in 10 μl of binding buffer and incubated for 20 minutes. The controls used were antibodies against VCAM-1 (BBT, No. BBA6) and against VLA-4 (Immunotech, No. 0764). […]

How did the IC50 turn out when CC(C)C(C(=O)NC[C@H](NC(=O)OCC12CC3CC(CC(C3)C1)C2)C(=O)O)N1C(=O)N(Cc2ccccc2)C(C)(c2ccccc2)C1=O (stereo partly drawn) [Example 4, (S)-3-((R,S)-2-((R,S)-4-Phenyl-3-benzyl-4-methyl-2,5-dioxoimidazolidin-1-yl)-2-isopropylacetylamino)-2-(1-adamantylmethyloxycarbonylamino)-propionic acid] was run?
Its IC50 is 45 µM.

With CC1(c2ccccc2)C(=O)N(CC(=O)N[C@@H](CC(=O)O)C(=O)N[C@H](C(=O)O)c2ccccc2)C(=O)N1Cc1ccccc1 (stereo partly drawn) [Example 7, ((R,S)-4-Phenyl-3-benzyl-4-methyl-2,5-dioxoimidazolidin-1-yl)acetyl-L-aspartyl-L-phenylglycine] as the molecule, how does the IC50 read?
The IC50 was 8 µM.

How did the IC50 turn out when C[C@]1(c2ccc(CO)cc2)C(=O)N(CC(=O)N[C@@H](CC(=O)O)C(=O)N[C@H](C(=O)O)c2ccccc2)C(=O)N1Cc1ccccc1 [Example 8, ((S)-4-(4-Hydroxymethylphenyl)-3-benzyl-4-methyl-2,5-dioxoimidazolidin-1-yl)acetyl-L-aspartyl-L-phenylglycine] was run?
Its IC50 is 4.5 µM.

Which IC50 does the source give for C[C@]1(c2ccc(CO)cc2)C(=O)N(CC(=O)NC[C@H](NC(=O)OCC23CC4CC(CC(C4)C2)C3)C(=O)O)C(=O)N1Cc1ccccc1 [Example 9, (S)-3-(((S)-4-(4-Hydroxymethylphenyl)-3-benzyl-4-methyl-2,5-dioxoimidazolidin-1-yl)acetylamino)-2-(1-adamantylmethyloxycarbonylamino)propionic acid] here?
The IC50 was 4 µM.

CC1(c2ccc(O)cc2)C(=O)N(CC(=O)N[C@@H](CC(=O)O)C(=O)N[C@H](C(=O)O)c2ccccc2)C(=O)N1Cc1ccccc1 (stereo partly drawn) [Example 10, ((R,S)-4-(4-Hydroxyphenyl)-3-benzyl-4-methyl-2,5-dioxoimidazolidin-1-yl)acetyl-L-aspartyl-L-phenylglycine] was tested. Which IC50 did it give?
The IC50 was 9.5 µM.
